Laboratory results: PMC4254045 (Bioorganic & medicinal chemistry, 2014)
Entries after “also recorded” stand apart in the source; their conditions may differ. Square brackets hold non-standard residues; d marks the D form. Peptide text beside a SMILES is read from it. dPhe(4-guanidino) = N=C(N)Nc1ccc(C[C@@H](N)C(=O)O)cc1; Phe(4-guanidino) = N=C(N)Nc1ccc(C[C@H](N)C(=O)O)cc1

Tests used:
mouse MrgC11 [1] = target: T1, mouse MrgC11 (Mus musculus, UniProt Q8CIP3); test: FLIPR agonist assay, transiently transfected HEK293 or KNRK cells, mouse MrgC11; assay type: cell-based; conditions: for agonist activity at mouse MrgC11 (in words): full agonism relative to BAM8-22
T1 sequence (Q8CIP3 1-322): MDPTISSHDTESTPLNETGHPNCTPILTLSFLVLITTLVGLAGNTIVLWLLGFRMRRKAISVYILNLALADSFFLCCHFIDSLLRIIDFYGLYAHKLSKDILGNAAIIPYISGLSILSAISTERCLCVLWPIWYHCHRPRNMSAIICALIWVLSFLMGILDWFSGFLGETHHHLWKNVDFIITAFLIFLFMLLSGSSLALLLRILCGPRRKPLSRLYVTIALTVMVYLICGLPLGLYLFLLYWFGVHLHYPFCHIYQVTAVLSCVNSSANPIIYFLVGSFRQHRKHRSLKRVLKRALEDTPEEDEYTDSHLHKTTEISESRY

rat MrgC = target: T2, rat MrgC (Rattus norvegicus, UniProt Q8R4G1); test: FLIPR agonist assay, transiently transfected HEK293 or KNRK cells, rat MrgC; assay type: cell-based
T2 sequence (Q8R4G1 1-323): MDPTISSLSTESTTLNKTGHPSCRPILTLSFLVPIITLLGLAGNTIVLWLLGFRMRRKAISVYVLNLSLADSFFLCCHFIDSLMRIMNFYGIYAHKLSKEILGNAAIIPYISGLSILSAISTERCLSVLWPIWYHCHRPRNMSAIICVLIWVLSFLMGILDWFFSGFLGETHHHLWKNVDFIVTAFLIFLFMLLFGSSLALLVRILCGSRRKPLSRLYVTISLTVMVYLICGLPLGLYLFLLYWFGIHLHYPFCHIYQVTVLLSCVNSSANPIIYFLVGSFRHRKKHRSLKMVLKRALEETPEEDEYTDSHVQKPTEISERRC

human MrgX1 [2] = target: T3, human MrgX1 (Homo sapiens, UniProt Q96LB2); test: FLIPR agonist assay, HEK293 cells stably transfected with human MrgX1; assay type: cell-based
mice = conditions: cited from earlier work
rats = conditions: cited from earlier work
human MrgX1 [3] = target: T3, human MrgX1; test: Antagonist activity in human MrgX1 using BAM8-22; assay type: cell-based; conditions: human MrgX1, BAM8-22 (200 nM) as agonist
mouse MrgC11 [4] = target: T1, mouse MrgC11; conditions: cited from earlier work
[5] = highest concentration tested due to limited solubility
[6] = FLIPR, transiently transfected HEK293 or KNRK cells, average of at least three independent experiments ± SD

T3 sequence (Q96LB2 whole entry): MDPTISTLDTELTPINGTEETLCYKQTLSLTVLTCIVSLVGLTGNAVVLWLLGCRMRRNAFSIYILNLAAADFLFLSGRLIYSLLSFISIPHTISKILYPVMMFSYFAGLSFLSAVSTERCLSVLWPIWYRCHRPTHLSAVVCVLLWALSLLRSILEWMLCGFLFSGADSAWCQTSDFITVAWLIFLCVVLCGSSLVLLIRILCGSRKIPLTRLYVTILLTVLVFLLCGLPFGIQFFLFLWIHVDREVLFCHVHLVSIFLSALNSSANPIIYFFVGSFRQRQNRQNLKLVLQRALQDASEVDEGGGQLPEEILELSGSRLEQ

In the case of `COc1ccc(-c2ccc(C(=O)Nc3cccc(Cn4ncc(N5CCNCC5)cc4=O)c3C)cc2)cn1` [1c, reference compound], the “agonist activity at mouse MrgC11 at concentrations up to 2 μM” value (mouse MrgC11 [1]; [5]) is reported as “no measurable agonist activity”, the “agonist activity at rat MrgC at concentrations up to 2 μM” value (rat MrgC; [5]) is reported as “no measurable agonist activity” and the “agonist activity at human MrgX1 (in words)” value (human MrgX1 [2]; FLIPR) is reported as “selectively activated human MrgX1”.
With `N=C(N)Nc1cccc(C(N)C(=O)N[C@@H](Cc2ccccc2)C(N)=O)c1` (some centres unmarked) [20a] the EC50 (rat MrgC) was > 100 µM, the “agonist activity at rat MrgC (in words)” value (rat MrgC; FLIPR) was “failed to show agonist activity; also recorded: Neither of the analogs showed agonist activity” and the EC50 (human MrgX1 [2]) was > 100 µM.
For `N=C(N)Nc1cccc(C(N)C(=O)N[C@@H](Cc2ccccc2)C(N)=O)c1` (some centres unmarked) [20b], the “pEC50 Mouse MrgC11” value (mouse MrgC11 [1]; [6]) was 4.5 ± 0.1, the “agonist activity at rat MrgC (in words)” value (rat MrgC; FLIPR) was “failed to show agonist activity; also recorded: Neither of the analogs showed agonist activity” and the “pEC50 Rat MrgC” value (rat MrgC; [6]) was <4.
With `N=C(N)Nc1ccc(C[C@H](N)C(=O)N[C@@H](Cc2ccccc2)C(N)=O)cc1` [24a, (2S)-2-amino-N-((2S)-1-amino-1-oxo-3-phenylpropan-2-yl)-3-(4-guanidinophenyl)propanamide bis(trifluoroacetate)] (H-[Phe(4-guanidino)]-Phe-NH2) the “agonist activity at mouse MrgC11 (in words)” value (mouse MrgC11 [1]; FLIPR) was “exhibited agonist activity” and the “agonist activity at rat MrgC (in words)” value (rat MrgC; FLIPR) was “exhibited agonist activity”.
In the case of `N=C(N)Nc1ccc(C[C@@H](N)C(=O)N[C@@H](Cc2ccccc2)C(N)=O)cc1` [24b, (2R)-2-amino-N-((2S)-1-amino-1-oxo-3-phenylpropan-2-yl)-3-(4-guanidinophenyl)propanamide bis(trifluoroacetate)] (H-[dPhe(4-guanidino)]-Phe-NH2), the “effect on neuropathic pain” value (mice) is listed as “attenuated neuropathic pain”, the “effect on neuropathic pain” value (rats) is listed as “attenuated neuropathic pain” and the “agonist activity at mouse MrgC11 (in words)” value (mouse MrgC11 [1]; FLIPR) is listed as “exhibited agonist activity”. For the same compound, the “fold more potent than 24a at mouse MrgC11” value (mouse MrgC11 [1]; relative to diastereomer 24a) was ~10 fold, the “agonist activity at rat MrgC (in words)” value (rat MrgC; FLIPR) was “exhibited agonist activity” and the “fold more potent than 24a at rat MrgC” value (rat MrgC; relative to diastereomer 24a) was ~100 fold. For the same compound, the “antagonist activity at concentrations up to 200 μM” value (human MrgX1 [3]) was “Neither Arg-Phe-NH2 nor 24b, however, showed any antagonist activity”.
In the case of `N=C(N)N[C@@H]1CN[C@H](C(=O)N[C@@H](Cc2ccccc2)C(N)=O)C1` [compound 12, (2S,4S)-N-((S)-1-amino-1-oxo-3-phenylpropan-2-yl)-4-guanidinopyrrolidine-2-carboxamide bis(trifluoroacetate)], the “agonist activity at rat MrgC (in words)” value (rat MrgC; FLIPR) is reported as “failed to show agonist activity”.
For `N=C(N)NC[C@@H]1CN[C@H](C(=O)N[C@@H](Cc2ccccc2)C(N)=O)C1` [compound 16, (2S,4S)-N-((S)-1-amino-1-oxo-3-phenylpropan-2-yl)-4-(guanidinomethyl)pyrrolidine-2-carboxamide bis(trifluoroacetate)], the “agonist activity at rat MrgC (in words)” value (rat MrgC; FLIPR) was “failed to show agonist activity”.
For Arg-Phe, the “EC50 for activating MrgC11 (in words)” value (mouse MrgC11 [4]) is given as “submicromolar”.
In the case of Phe-Met-Arg-Phe-NH2, the “MrgC11 agonist activity (in words)” value (mouse MrgC11 [4]) is listed as “submicromolar”.
In the case of Phe-Met-D-Arg-Phe-NH2, the “MrgC11 agonist activity (in words)” value (mouse MrgC11 [4]) is listed as “inactive”.
